Where two headings read alike, the source gives them in different places. *1 amine or outer side, *2 acyl side, *3 side chain or, on linkers, in order; H or OH if unused. Where a SMILES comes first, the peptide text is derived from it. Bridges are numbered along the chain shown (N, C = ends). [ ]: non-standard residue; d: D form. The star is where a group is joined. hTyr(3S-OH,4S-OH,3'-OSO3H) = N[C@H](C(=O)O)[C@H](O)[C@@H](O)c1ccc(O)c(OS(=O)(=O)O)c1; Orn(4R-OH,5R-OH) = O=C([C@H](C[C@@H](O)[C@@H](O)N[*:3])N[*:1])[*:2]; Pro(3S-OH,4S-Me) = C[C@H]1CN[C@H](C(=O)O)[C@H]1O; Gln(3R-OH) = NC(=O)C[C@@H](O)[C@H](N)C(=O)O; Palmitoyl = CCCCCCCCCCCCCCCC(=O)*; Hyp = O=C(O)[C@@H]1C[C@@H](O)CN1
What was measured:
[1] = tested on: P. falciparum 3D7 parasites; assay: P. falciparum growth inhibition assay, 1-cycle (72 h treatment), SYBR DNA staining (library screen at 2 μg/mL and dose-response); format: cell-based, Plasmodium falciparum
[2] = tested on: T. gondii RH strain (RH-Tub-eYFP) tachyzoites; assay: microbe, parasite or virus in culture; format: cell-based, Toxoplasma gondii; conditions: library screen at 2 μg/mL, 72 h, % growth; for percent parasite growth at 2 µg/mL: Toxoplasma gondii
[3] = tested on: P. falciparum 3D7 parasites; assay: P. falciparum growth inhibition assay, 2-cycle (120 h treatment), delayed-death screen and dose-response; format: cell-based, Plasmodium falciparum
[4] = library screen at 2 μg/mL, 72 h, % growth, replicate 1
[5] = library screen at 2 μg/mL, 72 h, % growth, replicate 2
[6] = library screen at 2 μg/mL, 120 h, % growth, replicate 1
[7] = library screen at 2 μg/mL, 120 h, % growth, replicate 2
[8] = Plasmodium falciparum, 3D7, library screen at 2 μg/mL, 72 h, % growth, replicate 1, read-out: Pf_72h_%Growth_Rep1
[9] = Plasmodium falciparum, 3D7, library screen at 2 μg/mL, 72 h, % growth, replicate 2, read-out: Pf_72h_%Growth_Rep2
[10] = replicate 1, read-out: Tg_72h_%Growth_Rep1
[11] = replicate 2, read-out: Tg_72h_%Growth_Rep2
[12] = Plasmodium falciparum, 3D7, library screen at 2 μg/mL, 120 h, % growth, replicate 1, read-out: Pf_120h_%Growth_Rep1
[13] = Plasmodium falciparum, 3D7, library screen at 2 μg/mL, 120 h, % growth, replicate 2, read-out: Pf_120h_%Growth_Rep2
[14] = Plasmodium falciparum, 3D7, 72 h, library screen at 2 μg/mL, 72 h, % growth, replicate 1, read-out: Pf_72h_%Growth_Rep1
[15] = Plasmodium falciparum, 3D7, 72 h, library screen at 2 μg/mL, 72 h, % growth, replicate 2, read-out: Pf_72h_%Growth_Rep2
[16] = Plasmodium falciparum, 3D7, 120 h, library screen at 2 μg/mL, 120 h, % growth, replicate 1, read-out: Pf_120h_%Growth_Rep1
[17] = Plasmodium falciparum, 3D7, 120 h, library screen at 2 μg/mL, 120 h, % growth, replicate 2, read-out: Pf_120h_%Growth_Rep2

SMILES	Pf_72h_%Growth_Rep1 [1, 4]	Pf_72h_%Growth_Rep2 [1, 5]	Tg_72h_%Growth_Rep1 ([2]; replicate 1)	Tg_72h_%Growth_Rep2 ([2]; replicate 2)	Pf_120h_%Growth_Rep1 [3, 6]	Pf_120h_%Growth_Rep2 [3, 7]	further results
Cc1cc(=O)c(O)cc2c1C[C@@H]1CC(C)(C)/C=C/C[C@@]3(C)Oc4cc(O)c(=O)cc(C)c4C[C@@H]3C[C@@H](O)[C@]1(C)O2 [Eupenifeldin]	0.51%	57.11%	1.55%	1.71%	3.95%	24.96%	1) Growth (%) at 72 h ([1]; P. falciparum, 2 μg/mL, 72 h): 28.81%; Mean ([1]; P. falciparum, 72 h, 2 μg/mL, mean of both replicates, growth (% of control)): 28.81; 2) Growth (%) at 120 h ([3]; P. falciparum, 2 μg/mL, 120 h): 14.46%; 3) Fold change (72 h/120 h) ([3]; P. falciparum, growth at 72 h / growth at 120 h, 2 μg/mL): 2.0
CC(=O)O[C@H]1CCC2(C)C3=C(CCC2C1(C)C)[C@@]1(C)CC[C@@H](C(C)CCC=C(C)C)[C@]1(C)CC3 (stereo partly shown) [Euphol acetate]	66.07%	91.20%	114.80%	105.35%	60.77%	92.36%	
COc1cc(C)c(C(=O)Oc2cc(C)c(C(=O)O)c(O)c2)c(O)c1 [Evernic acid]							activity at 2 µg/mL [1, 8]: 86.3%; activity at 2 µg/mL [1, 9]: 86.5%; percent parasite growth at 2 µg/mL [2, 10]: 133%; percent parasite growth at 2 µg/mL [2, 11]: 102%; activity at 2 µg/mL [3, 12]: 97.5%; activity at 2 µg/mL [3, 13]: 94.9%
CO[C@H]1C[C@@H]2CC[C@@H](C)[C@@](O)(O2)C(=O)C(=O)N2CCCC[C@H]2C(=O)O[C@H]([C@H](C)C[C@@H]2CC[C@@H](OCCO)[C@H](OC)C2)CC(=O)[C@H](C)/C=C(\C)[C@@H](O)[C@@H](OC)C(=O)[C@H](C)C[C@H](C)/C=C/C=C/C=C/1C [Everolimus]							activity at 2 µg/mL [1, 8]: 71.5%; activity at 2 µg/mL [1, 9]: 67.8%; percent parasite growth at 2 µg/mL [2, 10]: 40.6%; percent parasite growth at 2 µg/mL [2, 11]: 79.1%; activity at 2 µg/mL [3, 12]: 72.3%; activity at 2 µg/mL [3, 13]: 69.3%
COc1c2c(cc3c1c(=O)c1ccccc1n3C)OCO2 [Evoxanthine]	81.42%	82.46%	136.78%	86.81%	87.52%	89.49%	
C[C@@H](O)[C@@H]1NC(=O)[C@@H](N)C[C@@H](O)[C@@H](O)NC(=O)[C@@H]2[C@@H](O)[C@@H](C)CN2C(=O)[C@H]([C@H](O)CC(N)=O)NC(=O)[C@H]([C@H](O)[C@@H](O)c2ccc(O)c(OS(=O)(=O)O)c2)NC(=O)[C@@H]2C[C@@H](O)CN2C1=O [FR 179642] (H-[Orn(4R-OH,5R-OH)]T[Hyp][hTyr(3S-OH,4S-OH,3'-OSO3H)][Gln(3R-OH)][Pro(3S-OH,4S-Me)]; lactam 1-C)	86.67%	86.11%	133.49%	86.61%	98.57%	95.35%	
CCCCCCCCCCCCCCCC(=O)N[C@H]1C[C@@H](O)[C@@H](O)NC(=O)[C@@H]2[C@@H](O)[C@@H](C)CN2C(=O)[C@H]([C@H](O)CC(N)=O)NC(=O)[C@H]([C@H](O)[C@@H](O)c2ccc(O)c(OS(=O)(=O)O)c2)NC(=O)[C@@H]2C[C@@H](O)CN2C(=O)[C@H]([C@@H](C)O)NC1=O [FR 901379] (Palmitoyl-[Orn(4R-OH,5R-OH)]T[Hyp][hTyr(3S-OH,4S-OH,3'-OSO3H)][Gln(3R-OH)][Pro(3S-OH,4S-Me)]; lactam 1-C)	84.19%	83.86%	119.40%	105.49%	96.37%	99.58%	
COc1cc(/C=C/C(=O)O)ccc1O [Ferulic acid]	82.96%	102.51%	101.17%	94.55%	78.07%	101.86%	
CCCCC[C@@H](O)[C@H]1C(=O)O[C@H](C)[C@@H](O)/C=C/C=C/C=C/C=C/C=C(\C)[C@@H](O)C[C@H](O)C[C@H](O)C[C@H](O)C[C@H](O)C[C@H](O)C[C@@H]1O [Filipin III]							activity at 2 µg/mL [1, 14]: 83.6%; activity at 2 µg/mL [1, 15]: 89.2%; percent parasite growth at 2 µg/mL [2, 10]: 120%; percent parasite growth at 2 µg/mL [2, 11]: 104%; activity at 2 µg/mL [3, 16]: 97.4%; activity at 2 µg/mL [3, 17]: 99.7%
CCCCCC[C@H]1C(=O)O[C@H](C)[C@@H](O)/C=C/C=C/C=C/C=C/C=C(\C)[C@@H](O)C[C@H](O)C[C@H](O)C[C@H](O)C[C@H](O)C[C@H](O)C[C@@H]1O [Filipin II]	85.18%	87.84%	129.59%	103.40%	90.65%	90.94%	
COc1c(Cl)c(O)c(Cl)c(C)c1C(=O)O[C@H]1[C@H](O)C[C@H](O[C@H]2[C@@H](O)CC(=O)O[C@@H]2C)O[C@@H]1C [Flambalactone]	83.21%	82.63%	143.45%	100.30%	97.51%	89.66%	
COc1cc2c3c(c1O)-c1c(cc(O)c(OC)c1OC)CCC3N(C)CC2 (stereo not shown) [Floramultine]	85.55%	120.01%	115.84%	93.93%	85.60%	101.00%	
CS(=O)(=O)c1ccc([C@@H](O)[C@H](N)CF)cc1 [Florfenicol amine]	83.39%	89.53%	102.85%	100.85%	94.89%	93.06%	
CS(=O)(=O)c1ccc([C@@H](O)[C@@H](CF)NC(=O)C(Cl)Cl)cc1 [Florfenicol, reference compound]							activity at 2 µg/mL ([1]; Plasmodium falciparum, 3D7, 72 h, P. falciparum, 2 μg/mL, 72 h; read-out: 1) Growth (%) at 72 h): 62.4%; activity at 2 µg/mL [1, 14]: 69.7%; activity at 2 µg/mL [1, 15]: 55.2%; percent parasite growth at 2 µg/mL [2, 10]: 47.1%; percent parasite growth at 2 µg/mL [2, 11]: 48.9%; 3) Fold change (72 h/120 h) [3]: 5.8; activity at 2 µg/mL ([3]; Plasmodium falciparum, 3D7, 120 h, P. falciparum, 2 μg/mL, 120 h; read-out: 2) Growth (%) at 120 h): 10.8%; activity at 2 µg/mL [3, 16]: 12.9%; activity at 2 µg/mL [3, 17]: 8.65%
